Assay results as given in paper PMC2932999 (Journal of Medicinal Chemistry, 2010).

Key:
[1] = biological target: D197 Gifu NA (B/Gifu/11/2005 wild type neuraminidase) (Influenza B virus, UniProt Q38G88); format: biochemical; details: read-out: Km for MUNANA
[2] = biological target: D197 Perth NA (B/Perth/211/2001 wild type neuraminidase) (Influenza B virus, UniProt Q3S340); format: biochemical; details: read-out: Km for MUNANA
[3] = system: wild type D197 NAs (B/Perth and B/Gifu); format: biochemical, influenza B virus
[4] = in vivo; cited from earlier work
[5] = biological target: recombinant B/Perth/211/2001 wild type D197 neuraminidase heads (influenza B virus B/Perth/211/2001); assay: negative-stain electron microscopy

Q: What does the source list for CC(=O)N[C@H]1[C@H]([C@H](O)[C@H](O)CO)OC(Oc2ccc3c(C)cc(=O)oc3c2)(C(=O)O)C[C@@H]1O (some centres unmarked) [MUNANA, 4-methylumbelliferyl-N-acetylneuraminic acid]?
A: Km [1]: 10.5 ± 1.4 µM; Km [2]: 12.4 ± 4.2 µM

Q: Which “association of inhibitor with NA” value [3] does the source give for CC(=O)N[C@H]1[C@H]([C@H](O)[C@H](O)CO)OC(C(=O)O)=C[C@@H]1NC(=N)N [compound 1, zanamivir] here?
A: slow association

Q: What about the “dissociation of inhibitor from NA” value [3] of the same molecule?
A: slow dissociation

Q: What about the “levels delivered to the upper respiratory tract” value [4] of the same molecule?
A: up to 10 000 nmol/L

Q: With CCC(CC)[C@H](NC(C)=O)[C@@H]1[C@H](O)[C@@H](C(=O)O)C[C@H]1NC(=N)N [compound 3, peramivir] as the molecule, how does the “association of inhibitor with NA” value [3] read?
A: slow association

Q: And the “dissociation of inhibitor from NA” value [3]?
A: slow dissociation

Q: Which stoichiometry N [5] does the source give for “recombinant B/Perth/211/2001 wild type D197 neuraminidase heads (enzyme)” here?
A: 4
